Reference: US6191135A, “Neurokinin antagonists” (Boehringer Ingelheim KG, priority 1994, dated 2001)

molecular target: T1, NK1 -receptor (substance P-receptor) (Homo sapiens, UniProt P25103); assay: NK1-receptor affinity: displacement of 125I labelled substance P on intact human lymphoblastoma cells (IM-9); type: binding; conditions: intact human lymphoblastoma cells (IM-9) expressing NK1-receptors, read-out: Ki
T1 construct: intact human lymphoblastoma cells (IM-9) which express NK1 -receptors; endogenous in cells; host or cells: IM-9 human lymphoblastoma cells
Protocol: The receptor affinity for the NK1 -receptor (substance P-receptor) was determined on intact human lymphoblastoma cells (IM-9) which express NK1 -receptors, and the displacement of ^125 I labelled substance P was measured.

T1 sequence (P25103 whole entry): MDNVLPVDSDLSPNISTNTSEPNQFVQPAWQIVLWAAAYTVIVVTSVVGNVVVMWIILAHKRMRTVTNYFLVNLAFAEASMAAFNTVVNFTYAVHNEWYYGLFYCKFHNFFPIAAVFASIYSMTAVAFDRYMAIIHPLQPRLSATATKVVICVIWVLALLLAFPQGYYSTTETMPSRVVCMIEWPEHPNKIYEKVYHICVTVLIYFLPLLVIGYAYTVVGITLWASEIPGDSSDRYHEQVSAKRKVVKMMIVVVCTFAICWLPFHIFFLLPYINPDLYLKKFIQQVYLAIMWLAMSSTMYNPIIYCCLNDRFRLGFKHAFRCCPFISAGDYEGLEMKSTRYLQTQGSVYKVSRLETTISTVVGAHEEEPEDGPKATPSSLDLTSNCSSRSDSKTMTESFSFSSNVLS

| Compound | Ki [nM] |
| --- | --- |
| O=C(NCC(c1ccccc1)N1CCCCC1)Nc1cc(C(F)(F)F)cc(C(F)(F)F)c1 (centres unmarked) [Example 167] | 1000 |
| COc1ccccc1C(CNC(=O)Nc1cc(C(F)(F)F)cc(C(F)(F)F)c1)N1CCCC(C)C1 (centres unmarked) [Example 169] | 888 |
| COc1ccccc1C(CNC(=O)Nc1cc(C(F)(F)F)cc(C(F)(F)F)c1)N1CCC(C)CC1 (centres unmarked) [Example 170] | 84 |
| COc1ccccc1C(CNC(=O)Nc1cc(C(F)(F)F)cc(C(F)(F)F)c1)N1CCC(C2CCCCC2)CC1 (centres unmarked) [Example 171, N-3,5-Bistrifluoromethylphenyl-N'-[2-(2-methoxyphenyl)-2-(4-cyclohexylpiperidin-1-yl)-ethyl]-urea] | 898 |
| COc1ccccc1C(CNC(=O)Nc1cc(C(F)(F)F)cc(C(F)(F)F)c1)N1CC(C)CC(C)C1 (centres unmarked) [Example 172] | 173 |
| COc1ccccc1C(CNC(=O)Nc1cc(C(F)(F)F)cc(C(F)(F)F)c1)N1CCC(Cc2ccccc2)CC1 (centres unmarked) [Example 175, N-3,5-Bistrifluoromethylphenyl-N'-[2-(2-methoxyphenyl)-2-(4-benzylpiperidin-1-yl)-ethyl]-urea] | 230 |
| COc1ccccc1C(CNC(=O)Nc1cc(C(F)(F)F)cc(C(F)(F)F)c1)N1C2CCCC1CC2 (centres unmarked) [Example 176, N-3,5-Bistrifluoromethylphenyl-N'-[2-(2-methoxyphenyl)-2-(nortropan-8-yl)-ethyl]-urea] | 92 |
| COc1ccccc1C(CNC(=O)Nc1cc(C(F)(F)F)cc(C(F)(F)F)c1)N1CCC(N2CCCCC2)CC1 (centres unmarked) [Example 177, N-3,5-Bistrifluoromethylphenyl-N'-[2-(2-methoxyphenyl)-2-(4-piperidin-1-yl)-piperidin-1-yl-ethyl]-urea] | 10 |
